Our source for the relative activity values is paper PMC10875103, “Selective synthesis of rebaudioside M2 through structure-guided engineering of glycosyltransferase UGT94D1” (Frontiers in Bioengineering and Biotechnology, 2024).

This assay concerns the target T1, UGT94D1 (Sesamum indicum, UniProt A0A6I9T8N3, F119I/D188P).
T1 construct: gene LOC105161042; full ORF, synthetic codon-optimised gene; Ni-NTA purified and desalted
The assay is described as follows: UPLC glucosylation assay, […] h turnover. Format: biochemical. The following applies: 0.5 mM Reb D, 5 mM UDPG, 10 mM MnCl2, 50 mM Tris-HCl pH 8.0, 35 °C.

T1 sequence (A0A6I9T8N3 entry or part of it F119I/D188P): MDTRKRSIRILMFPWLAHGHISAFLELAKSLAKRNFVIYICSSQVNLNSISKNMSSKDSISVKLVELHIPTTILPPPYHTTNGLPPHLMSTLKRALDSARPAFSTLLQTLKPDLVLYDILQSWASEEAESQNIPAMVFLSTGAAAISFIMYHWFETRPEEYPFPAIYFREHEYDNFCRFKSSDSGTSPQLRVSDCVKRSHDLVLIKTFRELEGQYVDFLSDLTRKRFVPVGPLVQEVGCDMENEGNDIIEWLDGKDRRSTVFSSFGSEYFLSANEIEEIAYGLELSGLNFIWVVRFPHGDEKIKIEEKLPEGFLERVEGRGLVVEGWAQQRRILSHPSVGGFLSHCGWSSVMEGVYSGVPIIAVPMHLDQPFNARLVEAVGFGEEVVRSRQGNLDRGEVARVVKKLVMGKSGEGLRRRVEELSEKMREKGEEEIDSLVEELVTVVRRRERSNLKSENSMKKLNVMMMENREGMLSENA

For `C=C1C[C@@]23CC[C@H]4[C@@](C)(CCC[C@@]4(C)C(=O)O[C@@H]4O[C@H](CO)[C@@H](O)[C@H](O)[C@H]4O[C@@H]4O[C@H](CO)[C@@H](O)[C@H](O)[C@H]4O)[C@@H]2CC[C@]1(O[C@@H]1O[C@H](CO)[C@@H](O)[C@H](O[C@@H]2O[C@H](CO)[C@@H](O)[C@H](O)[C@H]2O)[C@H]1O[C@@H]1O[C@H](CO)[C@@H](O)[C@H](O)[C@H]1O)C3` [rebaudioside D], the relative activity entry was “catalytic activities of mutants F119I/D188P and F119P/D188P were further improved”.
